Key:
Assay type in all cases: physicochemical
[1] = Dynamic vapor sorption / water content versus relative humidity; conditions: 10% RH to 50% RH at room temperature
Description: DVS/Dynamic Vapor Sorption) data were obtained as follows: Dynamic vapor sorption was performed using a SMS Advantage system. Approximately 10 mg of sample was subjected to varying humidities between 0% RH and 95% RH at 25° C. Evaluation was performed using the system software.

[2] = Excipient compatibility: degradation in experimental excipient mixtures at 50° C./75% RH
[3] = Form conversion in aqueous organic solvent mixtures; conditions: aqueous organic solvent mixtures with very small quantities of water (1-2%)

C[C@@H]1OCC2(CCN(c3cnc(Sc4ccnc(N)c4Cl)c(N)n3)CC2)[C@@H]1N.C[C@@H]1OCC2(CCN(c3cnc(Sc4ccnc(N)c4Cl)c(N)n3)CC2)[C@@H]1N.O.O=C(O)CCC(=O)O.O=C(O)CCC(=O)O [Example 6, (3S,4S)-8-(6-amino-5-((2-amino-3-chloropyridin-4-yl)thio)pyrazin-2-yl)-3-methyl-2-oxa-8-azaspiro[4.5]decan-4-amine, succinate (1:1) hemihydrate, modification (form) HA]
water content over 10% RH to 50% RH [1]: constant water content | degradation levels in excipient mixtures ([2]; all four experimental excipient mixtures (Mixtures 1-4)): acceptable degradation levels

C[C@@H]1OCC2(CCN(c3cnc(Sc4ccnc(N)c4Cl)c(N)n3)CC2)[C@@H]1N.O=C(O)CCCCC(=O)O [Example 10, (3S,4S)-8-(6-amino-5-((2-amino-3-chloropyridin-4-yl)thio)pyrazin-2-yl)-3-methyl-2-oxa-8-azaspiro[4.5]decan-4-amine adipate (1:1), Modification A]
degradation with mixture containing mannitol, Ac-di-Sol and microcrystalline cellulose ([2]; mixture containing mannitol, Ac-di-Sol and microcrystalline cellulose (Mixture 4)): strong degradation

C[C@@H]1OCC2(CCN(c3cnc(Sc4ccnc(N)c4Cl)c(N)n3)CC2)[C@@H]1N.O=C(O)CCC(=O)O [Example 11, (3S,4S)-8-(6-amino-5-((2-amino-3-chloropyridin-4-yl)thio)pyrazin-2-yl)-3-methyl-2-oxa-8-azaspiro[4.5]decan-4-amine, succinate (1:1), anhydrous form, Modification A]
conversion of solid form [3]: rapidly converted into Modification HA

C[C@@H]1OCC2(CCN(c3cnc(Sc4ccnc(N)c4Cl)c(N)n3)CC2)[C@@H]1N [Example 13, (3S,4S)-8-(6-amino-5-((2-amino-3-chloropyridin-4-yl)thio)pyrazin-2-yl)-3-methyl-2-oxa-8-azaspiro[4.5]decan-4-amine free base Modification A]
degradation with excipient mixture containing HPMC ([2]; mixture containing HPMC (Mixture 2)): strong degradation
